PubChem BioAssay AID608 (Sanford-Burnham Center for Chemical Genomics, 2007)
Several values for one entry are separate records, joined by “and”; a condition that tells them apart may be missing. Identical values can stand only once. Activity calls are given as the source filed them. The rule behind the calls is not given here.

target: Peptidyl-prolyl cis-trans isomerase FKBP1A (Homo sapiens) (UniProt P62942); assay: small-molecule binding to FKBP12 – biophysical, NMR detection (AID 608); settings: purified FKBP12
Sequence (P62942 whole entry, looked up): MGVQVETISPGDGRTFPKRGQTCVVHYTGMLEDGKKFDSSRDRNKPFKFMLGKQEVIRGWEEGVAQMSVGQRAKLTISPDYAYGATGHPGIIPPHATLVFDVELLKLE

Row | SMILES | Kd
1 | C=CC(C)(O)CC/C=C(\C)CCC=C(C)C (stereo unspecified) | > 4 mM (inactive)
2 | CCCCC(Nc1n[nH]c(=O)[nH]c1=O)C(=O)O (stereo unspecified) | > 4 mM (inactive)
3 | CCN1CCC2(CC1)CC1CC3C=CC1(CN2C(C)=O)O3 (stereo unspecified) | > 4 mM (inactive)
4 | O=C(O)c1ccc(Nc2nncc(=O)[nH]2)cc1 | > 4 mM (inactive)
5 | CC(=O)Nc1ccc(S(=O)(=O)NC2=NCCS2)cc1 | > 4 mM (inactive)
6 | CC(C1OC(C)(C)C(O)C1O)[C@@H]1CC[C@]2(C)C3=CCC4C(C)(C)C(=O)CC[C@]4(C)C3CC[C@@]12C (stereo partly specified) | > 4 mM (inactive)
7 | Fc1ccc2onc(C3CCNCC3)c2c1 | > 4 mM (inactive)
8 | Cn1c(=O)cc(N2CCCCC2)[nH]c1=O | > 4 mM (inactive)
9 | Cc1cc(C(=O)c2c(C)nn(C)c2Cl)n(C)n1 | > 4 mM (inactive)
10 | OCC(O)C(O)C(O)CO (stereo unspecified) | > 4 mM (inactive)
11 | CC(=O)c1c(C)n([O-])c2ccccc2[n+]1=O | > 4 mM (inactive)
12 | O=c1c(O)c(-c2ccccc2)oc2ccc3occc3c12 | > 4 mM (inactive)
13 | CCCn1cnn2c(=O)cc(C)nc12 | > 4 mM (inactive)
14 | CC(NC(=O)c1cccnc1)c1ccc2c(c1)OCO2 (stereo unspecified) | > 4 mM (inactive)
15 | NC(=O)C1CCN(C(=O)c2ccco2)CC1 | > 4 mM (inactive)
16 | O=C1c2cccc3cc(S(=O)(=O)O)cc(c23)C(=O)N1O | > 4 mM (inactive)
17 | O=C(Nc1ccon1)c1csc2c1CCCC2 | > 4 mM (inactive)
18 | Nc1ccc(OCc2ccccc2)cc1 | > 4 mM (inactive)
19 | O=c1c(O)cc([C@H]2Oc3cc(O)cc(O)c3C[C@H]2O)cc2c([C@H]3Oc4cc(O)cc(O)c4C[C@H]3O)cc(O)c(O)c12 | > 4 mM (inactive)
20 | Cc1cn(C(=O)CN2C(=O)c3ccccc3C2=O)c(C)n1 | > 4 mM (inactive)
21 | NC(=NCCC[C@H](N)C(=O)O)NC(CCC(=O)O)C(=O)O (stereo partly specified) | > 4 mM (inactive)
22 | COc1ccc2c(C)cc(=O)oc2c1 | > 4 mM (inactive)
23 | O=C(NS(=O)(=O)c1ccccc1)c1ccccc1F | > 4 mM (inactive)
24 | O=C(O)CNCC(O)Cn1c2ccccc2c2ccccc21 (stereo unspecified) | > 4 mM (inactive)
25 | O=c1ccc2cc(O)c(O)cc2o1 | > 4 mM (inactive)

Row | SMILES | Kd
26 | CC(=O)OC1CCC2(O)CC1(C)CCC1C2CC1(C)C (stereo unspecified) | > 4 mM (inactive)
27 | COc1c(C(C)C)oc2cc3oc(=O)ccc3cc12 | > 4 mM (inactive)
28 | CC1=NN(C(N)=S)C(C)(C)C1 | > 4 mM (inactive)
29 | Cn1cnnc1SCCCNC(=O)Nc1ncccn1 | > 4 mM (inactive)
30 | COc1ccc2c(c1)O[C@@H]1COc3cc(OC)c(OC)cc3[C@@H]1C2=O | > 4 mM (inactive)
31 | O=C(CSC1=NCCS1)N1CCc2ccccc21 | > 4 mM (inactive)
32 | O=c1[nH]nc(Cc2ccncc2)c2ccccc12 | > 4 mM (inactive)
33 | Cc1cc(C(=O)NCc2ccccc2Br)no1 | > 4 mM (inactive)
34 | O=C(O)c1cccc2c1OCC2 | > 4 mM (inactive)
35 | O=C(O)CSc1cccc2cccnc12 | > 4 mM (inactive)
36 | COc1ccc(-c2coc3c(O)c(OC)ccc3c2=O)cc1 | > 4 mM (inactive)
37 | CC(=O)c1ccc(-n2ccnc2)cc1 | > 4 mM (inactive)
38 | COc1ccc(Cl)cc1NC(=O)C(N)=O | > 4 mM (inactive)
39 | Cc1cc(NC(=O)NCCCSc2nncn2C)no1 | > 4 mM (inactive)
40 | CCCCn1c(S(=O)(=O)O)nc2ccccc21 | > 4 mM (inactive)
41 | COC(=O)CCSCC(=O)Nc1nccs1 | > 4 mM (inactive)
42 | CC1(C)Cc2c(C#N)c(N)n(-c3ccccc3)c(=O)c2CO1 | > 4 mM (inactive)
43 | CSc1nnc2c(n1)OC=Nc1ccccc1-2 | > 4 mM (inactive)
44 | CC(=O)NC(O)C(=O)c1ccccc1 (stereo unspecified) | > 4 mM (inactive)
45 | CC(C)=NNC(=O)C(=O)NC(C)(C)C | > 4 mM (inactive)
46 | COc1ccc(C)cc1S(N)(=O)=O | > 4 mM (inactive)
47 | Nc1cccc(NC(=O)c2cccs2)c1 | > 4 mM (inactive)
48 | COC(=O)c1cncn1C | > 4 mM (inactive)
49 | Cc1cc(SCCF)n2ncnc2n1 | > 4 mM (inactive)
50 | NS(=O)(=O)c1ccc(F)cc1 | > 4 mM (inactive)

Row | SMILES | Kd
51 | Cc1ccc(N2C(=O)CCC2=O)cc1 | > 4 mM (inactive)
52 | CN1CCC(N2CCCC(C(N)=O)C2)CC1 (stereo unspecified) | > 4 mM (inactive)
53 | Oc1cc(O)c2c(c1)O[C@H](c1ccc(O)c(O)c1)[C@H](O)C2 | > 4 mM (inactive)
54 | COc1ccc(-c2oc3cc(O[C@H]4O[C@H](CO)[C@@H](O)[C@H](O)[C@H]4O)c(OC)c(O)c3c(=O)c2OC)cc1O | > 4 mM (inactive)
55 | O=C(CN1C(=O)c2cccc3cccc(c23)C1=O)NO | > 4 mM (inactive)
56 | CCOC(=O)c1cnc2cc(C)nn2c1C | > 4 mM (inactive)
57 | Cn1c(=O)c2cn3ncccc3c2n(C)c1=O | > 4 mM (inactive)
58 | O=C1NC(=O)C(C2SC(=O)NC2=O)S1 (stereo unspecified) | > 4 mM (inactive)
59 | NCc1ccc2occc2c1 | > 4 mM (inactive)
60 | Cc1nc2ccccc2c(=O)n1CCCO | > 4 mM (inactive)
61 | Cc1sc2nc(-c3ccco3)oc(=O)c2c1C | > 4 mM (inactive)
62 | Cc1nnc2sc(-c3ccco3)nn12 | > 4 mM (inactive)
63 | CCOC(=O)c1cnc2n(c1=O)CCS2 | > 4 mM (inactive)
64 | CC(=O)O[C@@H]1C=C[C@@]2(C)C(C[C@@H](OC(C)=O)[C@@]3(C)C4=CC(=O)O[C@@H](c5ccoc5)[C@]4(C)CCC23)C1(C)C (stereo partly specified) | > 4 mM (inactive)
65 | CC12CN([N+](=O)[O-])C3(C(N)=O)CC1CCC23C (stereo unspecified) | > 4 mM (inactive)
66 | Cc1cc(C)nc(/N=C(/N)N2CCN(C)CC2)n1 | > 4 mM (inactive)
67 | CNC(=O)C(=O)Nc1ccc(C)c(C)c1 | > 4 mM (inactive)
68 | COc1cc([C@@H]2c3cc4c(cc3[C@H](O)[C@H]3COC(=O)[C@@H]23)OCO4)cc(OC)c1OC | > 4 mM (inactive)
69 | COc1ccccc1NC(=O)c1cc[n+]([O-])cc1 | > 4 mM (inactive)
70 | Cn1c(=O)c2c(ncn2CCN)n(C)c1=O | > 4 mM (inactive)
71 | Cc1cc(C)nc(/N=C(/N)N2CCOCC2)n1 | > 4 mM (inactive)
72 | Cc1nc(SCC(=O)c2c[nH]c3ccccc23)n[nH]1 | inactive
73 | CN(Cc1nc2ccccc2n1C)C(=O)c1cccs1 | > 4 mM (inactive)
74 | O=C1NC(=S)NC(=O)C1=Cc1ccncc1 | > 4 mM (inactive)
75 | O=C(O)C1C(=O)NCC1c1ccccc1 (stereo unspecified) | > 4 mM (inactive)

Row | SMILES | Kd
76 | Cc1cccc(CO)n1 | > 4 mM (inactive)
77 | Nc1ccncc1 | > 4 mM (inactive)
78 | Cc1ccc(C)n1NC(=O)c1ccco1 | > 4 mM (inactive)
79 | Nc1ccc(CN2CCOCC2)cc1 | > 4 mM (inactive)
80 | Cc1nc2c(n1O)CCc1c-2no[n+]1[O-] | > 4 mM (inactive)
81 | CCOc1ccc(NS(=O)(=O)N2CCCCC2)cc1 | inactive
82 | Cc1cc(N)no1 | > 4 mM (inactive)
83 | Cc1ccc2nc(SCC(=O)O)nc(C)c2c1 | > 4 mM (inactive)
84 | COc1cc(OC)c(-c2nc3cnccc3n2C)cc1OC | > 4 mM (inactive)
85 | CN(C)CC(O)C1CCOC(C)(C)C1 (stereo unspecified) | > 4 mM (inactive)
86 | O=C(NCc1ccccc1Br)c1ccco1 | > 4 mM (inactive)
87 | NC(=O)CSc1ccc(-c2ccco2)nn1 | > 4 mM (inactive)
88 | Cc1cc(C(=O)N2CCCCCC2)cs1 | > 4 mM (inactive)
89 | O=C(NCO)c1ccc([N+](=O)[O-])cc1 | > 4 mM (inactive)
90 | COc1c2c(cc3c1OCO3)C13C=C[C@H](OC)CC1N(C2)CC3O (stereo partly specified) | > 4 mM (inactive)
91 | O=C(c1ccccc1)c1cncc(Br)c1 | > 4 mM (inactive)
92 | O=S(=O)(c1cccc2cccnc12)N1CCOCC1 | > 4 mM (inactive)
93 | COc1ccc(NS(=O)(=O)N2CCOCC2)cc1 | > 4 mM (inactive)
94 | N#CCCn1c(=O)oc2ccccc21 | > 4 mM (inactive)
95 | O=C(CSc1ccc(Cl)cc1)N1CCOCC1 | 0.014 mM and 0.019 mM
96 | NC(=O)CNC(=O)c1ccc2ccccc2n1 | > 4 mM (inactive)
97 | O=c1[nH]cc(COCc2ccccc2)c(=O)[nH]1 | > 4 mM (inactive)
98 | N#Cc1cc2c(nc1SCc1ccncc1)CCC2 | > 4 mM (inactive)
99 | C=C1CCC(C2CC(=O)OC2=O)C(=O)CCC2C1CC2(C)C (stereo unspecified) | > 4 mM (inactive)
100 | OCC1CNc2ccccc2O1 (stereo unspecified) | > 4 mM (inactive)

Row | SMILES | Kd
101 | CN1C(=O)c2ccc(C(=O)NC3CCCCC3)cc2C1=O | > 4 mM (inactive)
102 | NCCN=C1NS(=O)(=O)c2ccccc21 | > 4 mM (inactive)
103 | COC(=O)c1cccc(C(F)(F)F)c1 | > 4 mM (inactive)
104 | NC(=O)c1ccc(N2C(=O)CCC2=O)cc1Cl | > 4 mM (inactive)
105 | CC(CCC(=O)O)[C@H]1CCC2C3CC[C@@H]4C[C@H](O)CC[C@]4(C)C3CC[C@@]21C (stereo partly specified) | > 4 mM (inactive)
106 | O=C(O)CSc1nnc(-c2cccs2)o1 | > 4 mM (inactive)
107 | CN1CCN(CC(=O)NC2CCCCC2)CC1 | > 4 mM (inactive)
108 | OCc1ccc2occc2c1 | > 4 mM (inactive)
109 | CC(=O)N1CCC(NC2CCCCCC2)CC1 | > 4 mM (inactive)
110 | O=S(=O)(c1ccc(F)c(Cl)c1)N1CCCC1 | > 4 mM (inactive)
111 | CC(C)C1COc2cc3oc(=O)ccc3cc2O1 (stereo unspecified) | > 4 mM (inactive)
112 | Cc1csc2nc3ccccc3c(=O)n12 | > 4 mM (inactive)
113 | CC(O)C(=O)N/N=C/c1cccs1 (stereo unspecified) | > 4 mM (inactive)
114 | Cc1cc(O)c(NC(=O)c2ccco2)cc1C | > 4 mM (inactive)
115 | CC(C)=CCc1c2c(c3occ(-c4ccc(O)cc4)c(=O)c3c1O)C=CC(C)(C)O2 | > 4 mM (inactive)
116 | Cn1nc(C(=O)NC2CCCCC2)c2ccccc2c1=O | > 4 mM (inactive)
117 | c1ccc(SCc2nc(-c3ccncc3)no2)cc1 | 0.314 mM and 0.167 mM
118 | Nc1nc(CSc2ncn(-c3ccccc3)n2)cs1 | > 4 mM (inactive)
119 | CC(C)c1ccc2c(c1)CCC1[C@](C)(CN)CCC[C@]21C (stereo partly specified) | > 4 mM (inactive)
120 | COC(=O)NNc1ncnc(N)c1[N+](=O)[O-] | > 4 mM (inactive)
121 | c1ccc(-n2nnnc2Oc2cccc3cccnc23)cc1 | > 4 mM (inactive)
